The results in this text go back to patent US20250073284A1, “WEISSELLA CONFUSA, CULTURE METHOD THEREFOR AND USE THEREOF” (SHANGHAI SINGEN PET NUTRITION CO., LTD., priority 2021, published 2025).

A word on the MIC: it is the lowest concentration found to suppress growth. A high value points to a need for much substance.

Converted amounts (≈) assume the structure as drawn.

For one assay, the system named is strain WSG1. The experiment in a line: Susceptibility evaluation, K-B method (zones of inhibition of antibiotics). The assay is classed as cell-based, Weissella confusa. To be noted: antibiotic against strain WSG1, K-B method.
As for `CC1(C)S[C@@H]2[C@H](NC(=O)[C@H](N)c3ccc(O)cc3)C(=O)N2[C@H]1C(=O)O` [Amoxicillin, amoxicillin], the “Diameter of zone of inhibition” value worked out at 15.0 mm.

With `CC[C@H]1OC(=O)[C@H](C)[C@@H](O[C@H]2C[C@@](C)(OC)[C@@H](O)[C@H](C)O2)[C@H](C)[C@@H](O[C@@H]2O[C@H](C)C[C@H](N(C)C)[C@H]2O)[C@](C)(O)C[C@@H](C)CN(C)[C@H](C)[C@@H](O)[C@]1(C)O` [Azithromycin, azithromycin], the “Diameter of zone of inhibition” value is listed as 15.5 mm.

On to `CC1=C(C(=O)O)N2C(=O)[C@@H](NC(=O)[C@H](N)c3ccccc3)[C@H]2SC1` [Cefalexin, cefalexin], for which the “Diameter of zone of inhibition” value was found to be 15.5 mm.

As for `Cc1nnc(SCC2=C(C(=O)O)N3C(=O)[C@@H](NC(=O)Cn4cnnn4)[C@H]3SC2)s1` [Cefazolin, cefazolin], the “Diameter of zone of inhibition” value is 19.5 mm.

Regarding `CC1=C(C(=O)O)N2C(=O)[C@@H](NC(=O)[C@H](N)C3=CCC=CC3)[C@H]2SC1` [Cefradine, cefradine], the “Diameter of zone of inhibition” value worked out at 17.5 mm.

As for `CC(=O)OCC1=C(C(=O)O)N2C(=O)[C@@H](NC(=O)Cc3cccs3)[C@H]2SC1` [Cephalothin, cephalothin], the “Diameter of zone of inhibition” value is 23.5 mm.

In the case of `O=C(N[C@H](CO)[C@H](O)c1ccc([N+](=O)[O-])cc1)C(Cl)Cl` [Chloramphenicol, chloramphenicol], the “Diameter of zone of inhibition” value was 23.5 mm.

Regarding `CCC[C@@H]1C[C@@H](C(=O)N[C@@H]([C@H]2O[C@H](SC)[C@H](O)[C@@H](O)[C@H]2O)[C@H](C)Cl)N(C)C1` [Clindamycin, clindamycin], the “Diameter of zone of inhibition” value was 23.0 mm.

On to `CCN1CCN(c2cc3c(cc2F)c(=O)c(C(=O)O)cn3C2CC2)CC1` [Enrofloxacin, enrofloxacin], for which the “Diameter of zone of inhibition” value turned out to be 13.5 mm.

As for `Cc1onc(-c2ccccc2)c1C(=O)N[C@@H]1C(=O)N2[C@@H]1SC(C)(C)[C@@H]2C(=O)O` [Oxacillin, oxacillin], the “Diameter of zone of inhibition” value came to 7.5 mm.

As for `CN(C)[C@@H]1C(O)=C(C(N)=O)C(=O)[C@@]2(O)C(O)=C3C(=O)c4c(O)cccc4[C@@](C)(O)[C@H]3C[C@@H]12` [Tetracycline, tetracycline], the “Diameter of zone of inhibition” value was 19.5 mm.

As to `CN[C@H](CC(C)C)C(=O)N[C@H]1C(=O)N[C@@H](CC(N)=O)C(=O)N[C@H]2C(=O)N[C@H]3C(=O)N[C@H](C(=O)N[C@H](C(=O)O)c4cc(O)cc(O)c4-c4cc3ccc4O)[C@H](O)c3ccc(c(Cl)c3)Oc3cc2cc(c3O[C@@H]2O[C@H](CO)[C@@H](O)[C@H](O)[C@H]2O[C@H]2C[C@](C)(N)[C@H](O)[C@H](C)O2)Oc2ccc(cc2Cl)[C@H]1O` [Vancomycin, vancomycin], the “Diameter of zone of inhibition” value is on record as 0.0 mm.

Turning to penicillin, the “Diameter of zone of inhibition” value was found to be 23.5 mm.

Another assay concerns strain WSG1. The experiment in a line: Susceptibility evaluation, MIC method. It counts as cell-based. To be noted: Weissella confusa; marbofloxacin against strain WSG1.
`CN1CCN(c2c(F)cc3c(=O)c(C(=O)O)cn4c3c2OCN4C)CC1` [marbofloxacin] had a minimum inhibitory concentration (MIC) of 1020 µg/mL (≈ 2830 µM).
